Data from patent US20080287549A1, “METHODS AND MATERIALS FOR CONTROLLING RODENT POPULATIONS” (priority 2007, published 2008).

Key:
[1] = Body weight in male rats after 7 days of treatment; format: in vivo; conditions: 7 consecutive days; for Effect on body weight compared to the control group: 0.2-20 mg/kg; for Average Loss of Body Weight: pre- vs post-treatment
Procedure: (§1) Male rats were given increasing doses (control=0 mg/kg, low=0.2 mg/kg, medium=2 mg/kg and high=20 mg/kg) of clomiphene, trans-clomiphene or cis-clomiphene for 7 consecutive days. Treatment was followed by a 7-day washout period. Serum testosterone levels and body weight were tested pre-treatment and post-treatment. Serum testosterone levels were analyzed by direct radioimmunoassay (RIA).
(§2) There were significant and unexpected decreases in serum testosterone and body weight among all treatment groups. […] There was a significant loss in both body weight and total serum testosterone with clomiphene that was dose-dependent.

[2] = Ernst et al.; cited from earlier work
[3] = cited from earlier work
[4] = system: Serum testosterone; test: Serum testosterone in male rats after 7 days of treatment (direct RIA); format: in vivo; conditions: 7 consecutive days; for Effect on serum testosterone levels compared to the control group: 0.2-20 mg/kg; for Average Decrease in Serum Testosterone Level (%): pre- vs post-treatment
Procedure: as §1, §2

[5] = system: FSH, LH, testosterone; conditions: cited from earlier work

Compound	Effect on body weight compared to the control group [1]	Average Loss of Body Weight ([1]; high=20 mg/kg)	Average Loss of Body Weight ([1]; low=0.2 mg/kg)	Average Loss of Body Weight ([1]; medium=2 mg/kg)	estrogenic / antiestrogenic activity [2]	time for which significant blood level is detectable ([3]; following a single dose of clomiphene citrate)	in vivo clearance ([3]; in vivo)	Effect on serum testosterone levels compared to the control group [4]	Average Decrease in Serum Testosterone Level (%) ([4]; low=0.2 mg/kg)	Average Decrease in Serum Testosterone Level (%) ([4]; medium=2 mg/kg)	LH, FSH, and testosterone ([5]; after 2 months of treatment (Guay et al.))	free and total testosterone ([5]; men after treatment (Tenover et al.))	FSH, LH ([5]; young and old men after treatment (Tenover et al.))	Average Decrease in Serum Testosterone Level (%) ([4]; high=20 mg/kg)
CCN(CC)CCOc1ccc(/C(=C(/Cl)c2ccccc2)c2ccccc2)cc1 [Cis-clomiphene, cis-clomiphene]	caused a loss in body weight	75 g	32 g	54 g	more potent and more estrogenic form	in excess of one month	clears slowly	significantly and statistically lowered serum testosterone levels	68.1%	99.3%				
CCN(CC)CCOc1ccc(C(=C(Cl)c2ccccc2)c2ccccc2)cc1 [Clomiphene, clomiphene]	caused a loss in body weight	69 g	24 g	41 g				significantly and statistically lowered serum testosterone levels	65.2%	83.5%	increase	increases	increases	89.7%
